Measurements: ChEMBL document CHEMBL3734710 (Eur J Med Chem, 2015)

What was measured:
in vivo [1] = settings: rat, iv
in vivo [2] = settings: rat, po, 10 mg/kg
in vivo [3] = settings: rat, po, 10 mg/kg; remark: listed apart in the source
in vivo [4] = settings: rat, iv; remark: listed apart in the source
in vivo [5] = settings: rat, po, 10 mg/kg; remark: listed apart in the source
in vivo [6] = settings: rat, po, 10 mg/kg; remark: listed apart in the source
in vivo [7] = settings: rat, iv; remark: listed apart in the source
in vivo [8] = settings: rat, iv, 5 mg/kg
in vivo [9] = settings: rat, iv, 5 mg/kg; remark: listed apart in the source
in vivo [10] = settings: rat, iv, 5 mg/kg; remark: listed apart in the source

| Structure (SMILES) | half-life (in vivo [1]) | bioavailability (in vivo [2]) | Tmax (in vivo [3]) | Vd (in vivo [4]) | AUC(0-inf) (in vivo [5]) | Cmax (in vivo [6]) | clearance (in vivo [7]) | clearance (in vivo [8]) | half-life (in vivo [9]) | Vd (in vivo [10]) |
| --- | --- | --- | --- | --- | --- | --- | --- | --- | --- | --- |
| CCc1cc2c(cc1-c1cnn(CC(=O)N(C)C)c1)C(C)(C)c1[nH]c3cc(C#N)ccc3c1C2=O | 3.77 h | 7.1% | 3.3 h | 1.17 L/kg | 1350 ng·h/mL | 218 ng/mL | 10.8 mL/min/kg |  |  |  |
| CC1(C)c2cc(C3CCN(CC4CCOCC4)CC3)ccc2C(=O)c2c1[nH]c1cc(C#N)ccc21 |  | 67.1% | 4.5 h |  | 7290 ng·h/mL | 351 ng/mL |  | 14.2 mL/min/kg | 15.8 h | 17.4 L/kg |
| CC1(C)c2cc(C3CCN(CC4(O)CCOCC4)CC3)ccc2C(=O)c2c1[nH]c1cc(C#N)ccc21 |  | 42.4% | 3.3 h |  | 1940 ng·h/mL | 192 ng/mL |  | 38 mL/min/kg | 5.41 h | 12.9 L/kg |
